In ChEMBL document CHEMBL1201862, “PubChem BioAssay data set” (2004):
Calls of active or inactive are those of the source.

Key:
[1] = biological target: Type-1 angiotensin II receptor (Homo sapiens, UniProt P30556); experiment: AT1 receptor agonists, dose response, selectivity assay for APJ receptor agonist project, cell-based, uHTS hits (AID 488865); assay type: functional;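 further: beta-arrestin recruitment to AT1 measured by enzyme fragment complementation luminescence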
[2] = biological target: Sphingosine 1-phosphate receptor 1 (Homo sapiens, UniProt P21453); experiment: Fluorescence-based counterscreen assay for S1P4 agonists: Cell-based dose response high throughput screening assay to identify agonists of the Sphingosine 1-Phosphate Receptor 1 (S1P1). [Related pubchem assays (depositor defined):AID1509, AID1523, AID1801, AID463107, AID463118, AID463119, AID463122, AID463123, AID463129, AID463225, AID504400, AID504460]; assay type: functional
[3] = biological target: T1, Sphingosine 1-phosphate receptor 4 (Homo sapiens, UniProt O95977); experiment: Fluorescence dose response cell-based high throughput screening assay for agonists of the Sphingosine 1-Phosphate Receptor 4 (S1P4). [Related pubchem assays: 1509 (Primary screen.), 1523 (Confirmation screen in triplicates.)]; assay type: functional
T1 sequence (O95977 whole entry): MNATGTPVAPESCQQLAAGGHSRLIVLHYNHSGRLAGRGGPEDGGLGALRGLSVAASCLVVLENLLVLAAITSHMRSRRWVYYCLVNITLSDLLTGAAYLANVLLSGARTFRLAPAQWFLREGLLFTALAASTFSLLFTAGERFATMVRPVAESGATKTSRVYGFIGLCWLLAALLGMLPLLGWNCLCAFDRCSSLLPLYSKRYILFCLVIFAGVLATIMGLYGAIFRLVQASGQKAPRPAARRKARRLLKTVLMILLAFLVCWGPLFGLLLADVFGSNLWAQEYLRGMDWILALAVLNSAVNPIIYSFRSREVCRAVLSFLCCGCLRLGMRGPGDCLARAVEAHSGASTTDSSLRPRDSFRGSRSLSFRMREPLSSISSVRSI

[4] = biological target: T2, G-protein coupled receptor 35 (Homo sapiens, UniProt Q9HC97); experiment: SAR analysis of Agonists of the GPR35 Receptor using an Image-Based Assay - Set 4. [Related pubchem assays (depositor defined):AID2013, AID2026]; assay type: functional
[5] = biological target: T3, Cannabinoid receptor 1 (Homo sapiens, UniProt P21554); experiment: SAR analysis of agonists of the Cannabinoid Receptor 1 using an Image-Based Assay - Set 4. [Related pubchem assays (depositor defined):AID2013, AID2026]; assay type: functional
[6] = biological target: T2, G-protein coupled receptor 35; experiment: SAR analysis of Antagonists of the GPR35 Receptor using an Image-Based Assay - Set 6. [Related pubchem assays (depositor defined):AID2013, AID2026]; assay type: functional
[7] = biological target: T3, Cannabinoid receptor 1; experiment: SAR analysis of antagonists of the Cannabinoid Receptor 1 using an Image-Based Assay - Set 4. [Related pubchem assays (depositor defined):AID2013, AID2026]; assay type: functional
[8] = biological target: G-protein coupled receptor 55 (Homo sapiens, UniProt Q9Y2T6); experiment: SAR Analysis of Selective Antagonists of GPR55 using an Image-Based Assay - Set 4. [Related pubchem assays (depositor defined):AID2013, AID2026]; assay type: functional;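 further: antagonism of response to 5 µM lysophosphatidylinositol agonist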
[9] = biological target: T4, Cannabinoid receptor 2 (Homo sapiens, UniProt P34972); experiment: SAR analysis of antagonists of the Cannabinoid Receptor 2 using an Image-Based Assay - Set 3. [Related pubchem assays (depositor defined):AID2013, AID2026]; assay type: functional
[10] = biological target: T4, Cannabinoid receptor 2; experiment: SAR analysis of agonists of the Cannabinoid Receptor 2 using an Image-Based Assay - Set 3. [Related pubchem assays (depositor defined):AID2013, AID2026]; assay type: functional
[11] = Luminescence Cell-Based Dose Response HTS to Identify Inhibitors of Luciferase Translation or Activity in H4-C Neuroglioblastoma Cells. [Related pubchem assays: 1813 (Primary HTS), 1827 (Project Summary)]; assay type: functional
[12] = Luminescence Cell-Based Dose Response HTS to Identify Activators of Luciferase Translation or Activity in H4-C Neuroglioblastoma Cells. [Related pubchem assays: 1829 (Project Summary), 1814 (Primary HTS)]; assay type: functional
[13] = inhibitors of firefly luciferase expression or activity, dose response, H4 neuroglioma cells, luminescence (AID 1990); assay type: functional, cell-based
[14] = Luminescence Cell-Based Dose Retest to Confirm Activators of 5'UTR Stem-Loop Driven Alpha-Synuclein mRNA Translation in H4 Neuroglioblastoma Cells. [Related pubchem assays (depositor defined):AID1813, AID1829]; assay type: functional
[15] = Luminescence Cell-Based Dose Response HTS to Identify Activators of 5'UTR Stem-Loop Driven Prion Protein mRNA Translation in H4-C Neuroglioblastoma Cells. [Related pubchem assays: 1829 (Project Summary), 1814 (Primary HTS)]; assay type: functional
[16] = Luminescence Cell-Based Dose HTS Response to Identify Inhibitors of 5'UTR Stem-Loop Driven Prion Protein mRNA Translation in H4-C Neuroglioblastoma Cells. [Related pubchem assays (depositor defined):AID1814, AID1827]; assay type: functional
[17] = Luminescence Cell-Based Dose Response HTS to Identify Inhibitors of 5'UTR Stem-Loop Driven Prion Protein mRNA Translation in H4 Neuroglioblastoma Cells. [Related pubchem assays: 1827 (Project Summary), 1813 (Primary HTS)]; assay type: functional
[18] = inhibitors of SNCA 5'UTR-driven reporter translation, confirmation, H4 neuroglioma cells, luminescence (AID 1988); assay type: functional, cell-based
[19] = Luminescence Cell-Based Dose Confirmation HTS to Identify Inhibitors of 5'UTR Stem-Loop Driven Alpha-Synuclein mRNA Translation in H4 Neuroglioblastoma Cells. [Related pubchem assays: 1827 (Project Summary), 1813 (Primary HTS)]; assay type: functional

T2 sequence (Q9HC97 whole entry): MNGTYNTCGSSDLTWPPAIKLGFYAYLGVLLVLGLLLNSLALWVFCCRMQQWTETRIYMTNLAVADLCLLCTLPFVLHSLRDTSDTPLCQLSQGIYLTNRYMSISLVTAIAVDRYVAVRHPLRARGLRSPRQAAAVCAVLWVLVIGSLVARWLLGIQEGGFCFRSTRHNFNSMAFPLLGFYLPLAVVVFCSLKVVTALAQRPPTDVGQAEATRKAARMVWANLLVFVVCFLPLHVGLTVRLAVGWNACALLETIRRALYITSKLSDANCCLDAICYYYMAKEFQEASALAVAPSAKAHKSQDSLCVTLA
T3 sequence (P21554 whole entry): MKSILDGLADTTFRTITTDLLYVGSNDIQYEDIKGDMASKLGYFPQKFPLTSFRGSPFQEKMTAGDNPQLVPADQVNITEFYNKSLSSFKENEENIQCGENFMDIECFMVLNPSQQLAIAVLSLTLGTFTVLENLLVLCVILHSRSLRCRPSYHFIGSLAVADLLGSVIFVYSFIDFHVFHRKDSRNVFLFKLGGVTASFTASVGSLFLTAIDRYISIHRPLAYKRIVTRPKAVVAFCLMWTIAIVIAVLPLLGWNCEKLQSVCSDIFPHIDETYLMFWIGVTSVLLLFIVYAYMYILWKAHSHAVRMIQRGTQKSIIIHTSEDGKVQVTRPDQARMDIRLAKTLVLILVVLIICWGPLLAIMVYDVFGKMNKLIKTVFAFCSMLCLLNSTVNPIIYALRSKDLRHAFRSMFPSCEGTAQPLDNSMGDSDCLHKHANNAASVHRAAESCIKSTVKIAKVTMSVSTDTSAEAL
T4 sequence (P34972 whole entry): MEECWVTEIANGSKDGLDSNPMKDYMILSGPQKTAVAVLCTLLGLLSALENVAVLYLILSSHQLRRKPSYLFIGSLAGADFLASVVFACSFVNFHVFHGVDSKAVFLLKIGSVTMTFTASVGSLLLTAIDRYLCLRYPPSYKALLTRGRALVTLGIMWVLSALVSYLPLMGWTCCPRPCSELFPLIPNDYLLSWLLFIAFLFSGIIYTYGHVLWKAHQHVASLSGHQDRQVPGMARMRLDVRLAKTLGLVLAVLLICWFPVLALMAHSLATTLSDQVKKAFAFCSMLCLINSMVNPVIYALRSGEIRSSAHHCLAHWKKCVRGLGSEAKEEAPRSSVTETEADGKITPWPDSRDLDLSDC
Chain of G-protein coupled receptor 55 (Q9Y2T6 whole entry): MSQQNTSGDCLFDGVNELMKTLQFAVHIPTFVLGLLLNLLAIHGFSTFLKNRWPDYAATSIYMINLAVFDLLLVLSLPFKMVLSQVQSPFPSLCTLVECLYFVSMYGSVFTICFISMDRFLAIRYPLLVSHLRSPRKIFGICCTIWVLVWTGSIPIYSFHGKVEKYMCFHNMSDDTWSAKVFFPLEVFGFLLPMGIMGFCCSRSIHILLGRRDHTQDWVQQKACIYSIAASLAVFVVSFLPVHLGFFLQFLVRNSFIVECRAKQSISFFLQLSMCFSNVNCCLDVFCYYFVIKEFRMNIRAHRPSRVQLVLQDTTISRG
Chain of Sphingosine 1-phosphate receptor 1 (P21453 whole entry): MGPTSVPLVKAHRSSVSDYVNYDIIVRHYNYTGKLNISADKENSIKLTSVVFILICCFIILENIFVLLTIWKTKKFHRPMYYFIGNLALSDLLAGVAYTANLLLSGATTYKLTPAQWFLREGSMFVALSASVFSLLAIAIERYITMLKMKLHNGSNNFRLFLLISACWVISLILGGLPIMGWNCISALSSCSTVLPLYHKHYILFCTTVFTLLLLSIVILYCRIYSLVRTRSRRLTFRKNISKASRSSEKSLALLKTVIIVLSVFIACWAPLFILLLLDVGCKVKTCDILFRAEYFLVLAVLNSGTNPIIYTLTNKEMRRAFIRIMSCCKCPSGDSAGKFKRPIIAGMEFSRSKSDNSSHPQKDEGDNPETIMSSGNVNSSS
Chain of Type-1 angiotensin II receptor (P30556 whole entry, the tested form may be a part): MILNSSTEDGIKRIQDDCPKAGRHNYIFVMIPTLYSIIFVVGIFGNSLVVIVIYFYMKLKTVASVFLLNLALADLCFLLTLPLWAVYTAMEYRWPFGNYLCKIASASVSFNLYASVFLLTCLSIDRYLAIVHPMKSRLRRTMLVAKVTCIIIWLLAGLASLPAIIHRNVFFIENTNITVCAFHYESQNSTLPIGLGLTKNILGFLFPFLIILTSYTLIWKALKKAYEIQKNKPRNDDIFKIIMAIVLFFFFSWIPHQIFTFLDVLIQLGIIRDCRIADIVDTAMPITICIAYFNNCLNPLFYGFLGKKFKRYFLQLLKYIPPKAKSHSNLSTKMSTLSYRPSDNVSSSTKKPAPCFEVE

## CCN(CC)CCNC(=O)c1ccc(NC(=O)c2cc(-c3ccco3)nc3ccccc23)cc1
[1]
  EC50: > 100 µM (inactive)

## Clc1ccc(C2=NN(c3ccccc3)C(c3ccco3)C2)cc1 (centres undefined)
[2]
  EC50: > 5.53 µM (inactive)
[3]
  EC50: > 16.6 µM (not active)

## CCN(CC)S(=O)(=O)c1ccc(NC(=O)c2cc(-c3cccs3)nc3ccccc23)cc1
[4]
  EC50: > 32 µM (inactive)
[5]
  EC50: > 32 µM (inactive)
[6]
  IC50: > 32 µM (inactive)
[7]
  IC50: 0.427 µM (active)
[8]
  IC50: > 32 µM (inactive)
[9]
  IC50: > 32 µM (inactive)
[10]
  EC50: > 32 µM (inactive)

## COc1ccc(N(CC(=O)Nc2cc(Cl)ccc2OC)S(=O)(=O)c2c(C)noc2C)cc1
[11]
  EC50: 4.39 µM (active)
[12]
  EC50: 4.39 µM (inconclusive)
[13]
  EC50: > 120 µM (not active)
[14]
  EC50: 21.5 µM (inconclusive)
[15]
  EC50: 3.56 µM (inconclusive)
[16]
  EC50: 3.56 µM (active)
[17]
  EC50: 106 µM (active)
[18]
  EC50: 5.82 µM (active)
[19]
  EC50: 21.5 µM (active)
